ChEMBL document CHEMBL1275421, “Reduced Candida glabrata susceptibility secondary to an FKS1 mutation developed during candidemia treatment” (2008)
Converted amounts (≈) assume the structure as drawn. *1 amine or outer side, *2 acyl side, *3 side chain or, on linkers, in order; H or OH if unused. Where a SMILES comes first, the peptide text is derived from it. Bridges are numbered along the chain shown (N, C = ends). [ ]: non-standard residue; d: D form. The star is where a group is joined. hTyr(3S-OH,4S-OH,3'-OSO3H) = N[C@H](C(=O)O)[C@H](O)[C@@H](O)c1ccc(O)c(OS(=O)(=O)O)c1; pTerphenylCO(4''-OnC5H11) = CCCCCOc1ccc(-c2ccc(-c3ccc(C(=O)*)cc3)cc2)cc1; Orn(4R-OH,5R-OH) = O=C([C@H](C[C@@H](O)[C@@H](O)N[*:3])N[*:1])[*:2]; hTyr(3S-OH,4S-OH) = N[C@H](C(=O)O)[C@H](O)[C@@H](O)c1ccc(O)cc1; Pro(3S-OH,4S-Me) = C[C@H]1CN[C@H](C(=O)O)[C@H]1O; X1 = CCCCCOc1ccc(-c2cc(-c3ccc(C(=O)*)cc3)no2)cc1; Gln(3R-OH) = NC(=O)C[C@@H](O)[C@H](N)C(=O)O; Hyp = O=C(O)[C@@H]1C[C@@H](O)CN1

Assays:
Format in all cases: functional
Nakaseomyces glabratus [1] = test: Antifungal activity against Candida glabrata 06-3168 obtained from patient on compound therapy by M27-A2 method
Nakaseomyces glabratus [2] = test: Antifungal activity against Candida glabrata 06-3169 harboring […] T1896G and D632E mutant obtained from patient on compound therapy by M27-A2 method
Nakaseomyces glabratus [3] = test: Antifungal activity against Candida glabrata 06-3170 harboring […] T1896G and D632E mutant obtained from patient on compound therapy by M27-A2 method
Pichia kudriavzevii = test: Antifungal activity against Candida krusei obtained from patient with acute myeloid leukemia

Row | SMILES | MIC (Nakaseomyces glabratus [1]) [µg/mL] | MIC (Nakaseomyces glabratus [2]) [µg/mL] | MIC (Nakaseomyces glabratus [3]) [µg/mL] | MIC (Pichia kudriavzevii) [µg/mL]
1 | C[C@@H](c1ncncc1F)[C@](O)(Cn1cncn1)c1ccc(F)cc1F [VORICONAZOLE] | 0.03 (≈ 0.0859 µM) | 0.03 (≈ 0.0859 µM) | 0.03 (≈ 0.0859 µM) | –
2 | CCCCCOc1ccc(-c2cc(-c3ccc(C(=O)N[C@H]4C[C@@H](O)[C@@H](O)NC(=O)[C@@H]5[C@@H](O)[C@@H](C)CN5C(=O)[C@H]([C@H](O)CC(N)=O)NC(=O)[C@H]([C@H](O)[C@@H](O)c5ccc(O)c(OS(=O)(=O)O)c5)NC(=O)[C@@H]5C[C@@H](O)CN5C(=O)[C@H]([C@@H](C)O)NC4=O)cc3)no2)cc1 [MICAFUNGIN] (X1-[Orn(4R-OH,5R-OH)]T[Hyp][hTyr(3S-OH,4S-OH,3'-OSO3H)][Gln(3R-OH)][Pro(3S-OH,4S-Me)]; lactam 1-C) | 0.06 (≈ 0.0472 µM) | > 2 | > 2 | –
3 | OC(Cn1cncn1)(Cn1cncn1)c1ccc(F)cc1F [FLUCONAZOLE] | 1 (≈ 3.27 µM) | 1 (≈ 3.27 µM) | 1 (≈ 3.27 µM) | –
4 | C[C@@H]1[C@H](O)[C@@H](C)/C=C/C=C/C=C/C=C/C=C/C=C/C=C/[C@H](O[C@@H]2O[C@H](C)[C@@H](O)[C@H](N)[C@@H]2O)C[C@@H]2O[C@](O)(C[C@@H](O)C[C@@H](O)[C@H](O)CC[C@@H](O)C[C@@H](O)CC(=O)O[C@H]1C)C[C@H](O)[C@H]2C(=O)O [AMPHOTERICIN B] | 0.125 (≈ 0.135 µM) | 0.125 (≈ 0.135 µM) | 0.125 (≈ 0.135 µM) | –
5 | CC[C@H](C)C[C@H](C)CCCCCCCCC(=O)N[C@H]1C[C@@H](O)[C@@H](NCCN)NC(=O)[C@@H]2[C@@H](O)CCN2C(=O)[C@H]([C@H](O)CCN)NC(=O)[C@H]([C@H](O)[C@@H](O)c2ccc(O)cc2)NC(=O)[C@@H]2C[C@@H](O)CN2C(=O)[C@H]([C@@H](C)O)NC1=O [CASPOFUNGIN] | 0.06 (≈ 0.0549 µM) | > 2 | > 2 | 2 (≈ 1.83 µM)
6 | CCCCCOc1ccc(-c2ccc(-c3ccc(C(=O)N[C@H]4C[C@@H](O)[C@@H](O)NC(=O)[C@@H]5[C@@H](O)[C@@H](C)CN5C(=O)[C@H]([C@@H](C)O)NC(=O)[C@H]([C@H](O)[C@@H](O)c5ccc(O)cc5)NC(=O)[C@@H]5C[C@@H](O)CN5C(=O)[C@H]([C@@H](C)O)NC4=O)cc3)cc2)cc1 [ANIDULAFUNGIN] ({pTerphenylCO(4''-OnC5H11)}-[Orn(4R-OH,5R-OH)]T[Hyp][hTyr(3S-OH,4S-OH)]T[Pro(3S-OH,4S-Me)]; lactam 1-C) | 0.03 (≈ 0.0263 µM) | > 2 | > 2 | –
